According to patent publication US6399088B1, “Citric acid tri-alkylamide surfactants” (Air Products and Chemicals, Inc., priority 2000, dated 2002):
Marks after values point to notes of the source that are not given here.

Key:
Type in all cases: physicochemical
[1] = Solubility limit in water
Description: (§1) The solubility limits of Examples 6 and 7 were determined by intersection of the linear portion of a surface tension/In (concentration) curve with the limiting surface tension as is described in many textbooks. Since Example 8 contained insoluble material at 0.005 wt %, the solubility limit is reported as <0.005 wt %. Also, the solubility limit of ˜10 wt % reported for Example 1 is the lowest concentration at which a significant amount of insoluble material was seen. The relative efficiency of surfactants can be obtained by comparing surface tension reduction of solutions containing the same amount of different surfactants. Such data is given for 0.1 wt % solutions of the tri-alkylcitramides at 1.0 and 6.0 b/s. The limiting surface tensions at 0.1, 1, 6 and 20 b/s represent the lowest surface tensions in water which can be achieved at the given surface creation rates for a given surfactant regardless of the amount of surfactant used and is used to evaluate the effectiveness of a surfactant. These values give information about the relative ability of a surfactant to reduce surface defects under near-equilibrium conditions (0.1 b/s) through very dynamic conditions (20 b/s). Lower surface tensions would allow the elimination of defects upon application of a formulation onto lower energy surfaces.

[2] = Dynamic surface tension of aqueous solutions, maximum-bubble pressure method; settings: for γ (0.1 wt % solution) (1 b/s) / γ (0.1 wt % solution) (6 b/s): 0.1 wt % solution in water
Description: Solutions of the citramides of Examples 1-4 in distilled water were prepared. Dynamic surface tension data were obtained using the maximum-bubble pressure method at bubble rates from 0.1 bubbles/second (b/s) to 20 b/s as described in Langmuir 1986, 2, 428-432. […] In practical terms, high bubble rates correspond to high printing speeds in lithographic printing, high spray or roller velocities in coating applications, rapid application rates for agricultural products and electronics cleaning and processing.
as §1

[3] = Foam test based upon ASTM D 1173-53; settings: 0.1 wt % solution; for initial foam: foam height at completion of addition
Description: The foaming properties of a 0.1 wt % solutions of the tri-alkylcitramides (N,N′,N″-tri-n-propylcitramide, N, N′, N″-tri-n-butylcitramide, N, N′, N″-tri-iso-butylcitramide and N,N′,N″-tri-iso-amylcitramide) were examined using a procedure based upon ASTM D 1173-53. In this test, a 0.1 wt % solution of the citramide surfactant was added from an elevated glass pipette to a receiver containing the same solution. The foam height was measured at the completion of the addition (“Initial Foam Height”) and the time required for the foam to dissipate at the air-liquid interface (“Time to 0 Foam”) was recorded. This test provided a comparison between the foaming characteristics of the various citramides. In general, in coatings, inks, adhesives, agricultural and electronics cleaning formulations, foam is undesirable because it complicates handling and can lead to coating and print defects, and to inefficient application of materials.

[4] = in water, from observed insoluble material
[5] = limiting surface tension in water, 0.1 bubbles/second
[6] = limiting surface tension in water, 1 bubble/second
[7] = limiting surface tension in water, 6 bubbles/second
[8] = limiting surface tension in water, 20 bubbles/second

solubility limit ([1]; in distilled water)	solubility limit [1, 4] [wt %]	γ (0.1 wt % solution) (1 b/s) ([2]; 1 b/s) [Dyne/cm]	γ (0.1 wt % solution) (6 b/s) ([2]; 6 b/s) [Dyne/cm]	γ limiting (0.1 b/s) [2, 5] [Dyne/cm]	γ limiting (1 b/s) [2, 6] [Dyne/cm]	γ limiting (6 b/s) [2, 7] [Dyne/cm]	γ limiting (20 b/s) [2, 8] [Dyne/cm]	time to zero foam [3] [s]	initial foam [3] [cm]	relative solubility in water ([1]; in comparison to N,N′,N″-tri-iso-butylcitramide)	dynamic surface tension (0.1 b/s) ([2]; added to water at 5 wt %, material remained undissolved, 0.1 b/s) [dyne/cm]	dynamic surface tension (1 b/s) ([2]; added to water at 5 wt %, material remained undissolved, 1 b/s) [dyne/cm]	dynamic surface tension (6 b/s) ([2]; added to water at 5 wt %, material remained undissolved, 6 b/s) [dyne/cm]	dynamic surface tension (20 b/s) ([2]; added to water at 5 wt %, material remained undissolved, 20 b/s) [dyne/cm]	γ limiting (0.1 b/s) ([2]; limiting γ at 0.005 wt. % surfactant, 0.1 b/s)	γ limiting (1 b/s) ([2]; limiting γ at 0.005 wt. % surfactant, 1 b/s)	γ limiting (6 b/s) ([2]; limiting γ at 0.005 wt. % surfactant, 6 b/s)	γ limiting (20 b/s) ([2]; limiting γ at 0.005 wt. % surfactant, 20 b/s)	SMILES
˜10 Weight %	~10	66.7	67.2	42.9	43.1	43.7	44.9	10	2.8	–	–	–	–	–	–	–	–	–	CCCNC(=O)CC(O)(CC(=O)NCCC)C(=O)NCCC [Example 1, N,N′,N″-tri-n-propylcitramide]
0.4 Weight %	–	51.2	52.6	43.6	43.9	44.6	46.2	9	1.3	more soluble	–	–	–	–	–	–	–	–	CCCCNC(=O)CC(O)(CC(=O)NCCCC)C(=O)NCCCC [Example 2, N,N′,N″-tri-n-butylcitramide]
<0.005 Weight %	< 0.005	63.3	66.6	–	–	–	–	2	1.3	–	45.7	45.9	46.4	47.4	51.6^c Dyne/cm	62.6^c Dyne/cm	67.0^c Dyne/cm	71.4^c Dyne/cm	CC(C)CCNC(=O)CC(O)(CC(=O)NCCC(C)C)C(=O)NCCC(C)C [Example 4, N,N′,N″-tri-iso-amylcitramide]
0.2 Weight %	–	51.8	52.5	46.6	46.8	47.3	48.4	10	1.0	–	–	–	–	–	–	–	–	–	CC(C)CNC(=O)CC(O)(CC(=O)NCC(C)C)C(=O)NCC(C)C [Example 3, N,N′,N″-tri-iso-butylcitramide]
